# Measured values published in US7871635B2, “Use of compound that inactivates protein kinase A in a composition containing a cosmetically acceptable medium for lightening the skin” (Societe d'Exploitation de Produits pour les Industries …, priority 2002, dated 2011).
# Test system: Pigmented human epidermides (phototype IV)
# Assay: Intracellular melanin content in reconstructed human epidermides
# Format: cell-based
# Conditions: topical, 4 days; for Intracellular melanin: control 347 ± 2 μg/ml
# Procedure: Pigmented human epidermides (phototype IV) supplied by Skinethic, of 0.63 cm^2, are reconstructed from a coculture of normal human keratinocytes (skin of the forearm, donor, 2nd passage) and from normal human melanocytes (skin of the forearm, donor of phototype IV, 3rd passage). The keratinocyte/melanocyte ratio is 10:1. The cocultures are inoculated onto inert polycarbonate filters. They are cultured for 10 days in the medium supplied by Skinethic, consisting of MCDB 153 medium supplemented with 5 μg/ml of insulin, 1.5 mM of calcium and growth factors. […] The epidermides are cultured in 6-well plates containing 1 ml of the medium described above. […] The application is performed every day for 4 consecutive days. The incubation medium of the reconstructed epidermides is renewed every day for 4 consecutive days. Control epidermides are treated with a formulation free of active principle. Each test is performed in duplicate. […] Dermatol., 105, 1995, 361-366. The samples are centrifuged for 10 minutes at 10 000 rpm. The extracted intracellular […] measured by spectrophotometry at 500 nm. A melanin calibration range is prepared in parallel. The results are expressed as […] of intracellular melanin and as a percentage of inhibition relative to the control group.
SMILES,Intracellular melanin (formulated at 1% (w/v)) [µg/mL],Intracellular melanin (formulated at 3% (w/v)) [µg/mL],Intracellular melanin (formulated at 0.1% (w/v)) [µg/mL],Inhibition of the amount of intracellular melanin (formulated at 3% (w/v)) [%],"Inhibition of the amount of intracellular melanin (formulated at 3% (w/v), listed as N-undecylenoylphenylalanine) [%]"
"OC[C@H]1O[C@@H](Oc2ccc(O)cc2)[C@H](O)[C@@H](O)[C@@H]1O [Arbutin, arbutin]",242 ± 46,263 ± 16,,,
"Oc1ccc(O)cc1 [Hydroquinone, hydroquinone]",,,317 ± 0,,
"O=c1cc(CO)occ1O [Kojic acid, kojic acid]",273 ± 2,234 ± 19,,,
"C=CCCCCCCCCC(=O)NC(Cc1ccccc1)C(=O)O (stereo not drawn) [N-Undecylenoylphenylalanine, N-(ω-undecylenoyl)phenylalanine]",264 ± 9,264 ± 11,,24,24
